In patent publication US20220313656A1, “NEW CLASS OF ANTIBIOTICS HAVING LOW MIC-VALUES TOWARDS DIFFERENT STRAINS OF BACTERIA” (priority 2019, published 2022):
Where two headings read alike, the source gives them in different places.

Assays:
Assay in all cases: MIC, serial dilution method (CLSI)
[1] = test system: Salmonella enteritidis; format: cell-based
Description: (§1) These inoculums were each in diluted 1:100 in Müller Hinton (MH) broth (Sigma, Copenhagen, Denmark). From the diluted inoculums 100 μl was transferred to each well in a 96-well plate and mixed with the compound to be MIC determined. The plate was incubated for 24 hours at 37° C. (without shaking). The MIC value was determined as the lowest concentration in which no bacterial growth could be visually detected. All MIC determinations were done in duplicates. […] Since all derivatives are new, no control strains (with reference MIC values) were available.

[2] = test system: Listeria monocytogenes; format: cell-based
Description: as §1

[3] = test system: Bacillus cereus; format: cell-based
Description: as §1

[4] = test system: Streptococcus equi; format: cell-based
Description: as §1

[5] = test system: E. coli APEC O2; format: cell-based, Escherichia coli
Description: as §1

[6] = test system: S. aureus CC398; format: cell-based, Staphylococcus aureus
Description: as §1

[7] = test system: S. aureus USA300; format: cell-based, Staphylococcus aureus
Description: as §1

[8] = test system: E. faecalis; format: cell-based, Enterococcus faecalis
Description: as §1

[9] = test system: E. faecium; format: cell-based, Enterococcus faecium
Description: as §1

[10] = test system: Staphylococus pseudintermedius; format: cell-based, Staphylococcus pseudintermedius
Description: as §1

[11] = Salmonella enterica, ENTERITIDIS, 24 h, read-out: MIC
[12] = Escherichia coli, APECO2, 24 h, read-out: MIC
[13] = Staphylococcus aureus, MRSA, 24 h, read-out: MIC
[14] = Staphylococcus aureus, USA300, 24 h, read-out: MIC
[15] = Enterococcus faecalis, 24 h, read-out: MIC
[16] = Enterococcus faecium, 24 h, read-out: MIC
[17] = Staphylococcus pseudintermedius, 24 h, read-out: MIC
[18] = Salmonella enteritidis, MH broth, 24 hours at 37° C., set to 256 if growth at […]
[19] = MH broth, 24 hours at 37° C., set to 256 if growth at […]
[20] = E. coli APEC O2, MH broth, 24 hours at 37° C., set to 256 if growth at […]
[21] = S. aureus CC398 (MRSA strain), MH broth, 24 hours at 37° C., set to 256 if growth at […]
[22] = S. aureus USA300, MH broth, 24 hours at 37° C., set to 256 if growth at […]
[23] = E. faecalis, MH broth, 24 hours at 37° C., set to 256 if growth at […]
[24] = E. faecium, MH broth, 24 hours at 37° C., set to 256 if growth at […]
[25] = Staphylococus pseudintermedius, MH broth, 24 hours at 37° C., set to 256 if growth at […]

Compound	MIC [1, 11]	MIC ([2]; 24 h, read-out: MIC)	MIC ([3]; 24 h, read-out: MIC)	MIC ([4]; 24 h, read-out: MIC)	MIC [5, 12]	MIC [6, 13]	MIC [7, 14]	MIC [8, 15]	MIC [9, 16]	MIC [10, 17]	MIC [1, 18]	MIC [2, 19]	MIC [3, 19]	MIC [4, 19]	MIC [5, 20]	MIC [6, 21]	MIC [7, 22]	MIC [8, 23]	MIC [9, 24]	MIC [10, 25]
CC(C)[N+](C)(C)C(C)CN1c2ccccc2Sc2ccccc21.[Br-] (stereo not shown) [Compound S15, N-isopropyl-N,N-dimethyl-1-(10H-phenothiazin-10-yl)propan-2-aminium bromide]	128 µg/mL	128 µg/mL	128 µg/mL	256 µg/mL	128 µg/mL	16 µg/mL	64 µg/mL	128 µg/mL	128 µg/mL	32 µg/mL	–	–	–	–	–	–	–	–	–	–
CC[N+](C)(C)CCCN1c2ccccc2Sc2ccc(Cl)cc21.[Br-] [Compound S3, 3-(2-chloro-10H-phenothiazin-10-yl)-N-ethyl-N,N-dimethylpropan-1-aminium bromide]	256 µg/mL	32 µg/mL	32 µg/mL	16 µg/mL	256 µg/mL	16 µg/mL	16 µg/mL	128 µg/mL	32 µg/mL	8 µg/mL	–	–	–	–	–	–	–	–	–	–
CC(CN1c2ccccc2Sc2ccccc21)[N+](C)(C)C.[I-] (stereo not shown) [Compound S13, N,N,N-trimethyl-1-(10H-phenothiazin-10-yl)propan-2-aminium iodide]	128 µg/mL	256 µg/mL	128 µg/mL	32 µg/mL	256 µg/mL	128 µg/mL	128 µg/mL	256 µg/mL	128 µg/mL	64 µg/mL	–	–	–	–	–	–	–	–	–	–
CSc1ccc2c(c1)N(CCC1CCCC[N+]1(C)C(C)C)c1ccccc1S2.[Br-] (stereo not shown) [Compound S26, 1-isopropyl-1-methyl-2-(2-(2-(methylthio)-10H-phenothiazin-10-yl)ethyl)piperidin-1-ium bromide]	128 µg/mL	8 µg/mL	8 µg/mL	8 µg/mL	128 µg/mL	8 µg/mL	8 µg/mL	32 µg/mL	16 µg/mL	8 µg/mL	–	–	–	–	–	–	–	–	–	–
CCCCC[N+](C)(C)CCCN1c2ccccc2Sc2ccc(Cl)cc21.[Br-] [Compound S6, N-(3-(2-chloro-10H-phenothiazin-10-yl)propyl)-N,N-dimethylpentan-1-aminium bromide]	256 µg/mL	64 µg/mL	64 µg/mL	32 µg/mL	256 µg/mL	64 µg/mL	64 µg/mL	128 µg/mL	64 µg/mL	32 µg/mL	–	–	–	–	–	–	–	–	–	–
C[N+](C)(CCCN1c2ccccc2Sc2ccc(Cl)cc21)Cc1ccccc1 [Chlorpromazine Benzyl]	–	–	–	–	–	–	–	–	–	–	64 µg/mL	8 µg/mL	4 µg/mL	2 µg/mL	64 µg/mL	4 µg/mL	8 µg/mL	16 µg/mL	16 µg/mL	2 µg/mL
CC(C)CC[N+](C)(C)CC/C=C1/c2ccccc2Sc2ccc(Cl)cc21.[Br-] [Compound S37, (Z)—N-(3-(2-chloro-9H-thioxanthen-9-ylidene)propyl)-N,N,3-trimethylbutan-1-aminium bromide]	64 µg/mL	8 µg/mL	8 µg/mL	4 µg/mL	64 µg/mL	4 µg/mL	4 µg/mL	16 µg/mL	16 µg/mL	4 µg/mL	–	–	–	–	–	–	–	–	–	–
CCCCC[N+](C)(C)C(C)CN1c2ccccc2Sc2ccccc21.[Br-] (stereo not shown) [Compound S17, N-(1-(10H-phenothiazin-10-yl)propan-2-yl)-N,N-dimethylpentan-1-aminium bromide]	64 µg/mL	8 µg/mL	8 µg/mL	4 µg/mL	64 µg/mL	32 µg/mL	8 µg/mL	32 µg/mL	16 µg/mL	4 µg/mL	–	–	–	–	–	–	–	–	–	–
CC(CN1c2ccccc2Sc2ccccc21)[N+](C)(C)Cc1ccccc1 (stereo not shown) [Promethazine Benzyl]	–	–	–	–	–	–	–	–	–	–	128 µg/mL	32 µg/mL	32 µg/mL	16 µg/mL	128 µg/mL	16 µg/mL	16 µg/mL	128 µg/mL	64 µg/mL	16 µg/mL
C[N+](C)(C)CC/C=C1/c2ccccc2Sc2ccc(Cl)cc21.[I-] [Compound S35, (Z)-3-(2-chloro-9H-thioxanthen-9-ylidene)-N,N,N-trimethylpropan-1-aminium iodide]	256 µg/mL	256 µg/mL	128 µg/mL	256 µg/mL	256 µg/mL	256 µg/mL	256 µg/mL	256 µg/mL	256 µg/mL	256 µg/mL	–	–	–	–	–	–	–	–	–	–
CC(C)[N+](C)(C)CCCN1c2ccccc2Sc2ccc(Cl)cc21.[Br-] [Compound S4, 3-(2-chloro-10H-phenothiazin-10-yl)-N-isopropyl-N,N-dimethylpropan-1-aminium bromide]	128 µg/mL	32 µg/mL	32 µg/mL	32 µg/mL	128 µg/mL	16 µg/mL	16 µg/mL	128 µg/mL	64 µg/mL	8 µg/mL	–	–	–	–	–	–	–	–	–	–
CSc1ccc2c(c1)N(CCC1CCCC[N+]1(C)Cc1ccccc1)c1ccccc1S2 (stereo not shown) [Thioridazine Benzyl]	–	–	–	–	–	–	–	–	–	–	64 µg/mL	4 µg/mL	2 µg/mL	2 µg/mL	128 µg/mL	2 µg/mL	2 µg/mL	8 µg/mL	8 µg/mL	2 µg/mL
C[N+](C)(C)CCCN1c2ccccc2Sc2ccc(Cl)cc21.[I-] [Compound S2, 3-(2-chloro-10H-phenothiazin-10-yl)-N,N,N-trimethylpropan-1-aminium iodide]	256 µg/mL	64 µg/mL	32 µg/mL	16 µg/mL	256 µg/mL	32 µg/mL	32 µg/mL	128 µg/mL	32 µg/mL	8 µg/mL	–	–	–	–	–	–	–	–	–	–
CC[N+](C)(C)CC/C=C1/c2ccccc2Sc2ccc(Cl)cc21.[Br-] [Compound S36, (Z)-3-(2-chloro-9H-thioxanthen-9-ylidene)-N-ethyl-N,N-dimethylpropan-1-aminium bromide]	256 µg/mL	128 µg/mL	64 µg/mL	256 µg/mL	256 µg/mL	32 µg/mL	32 µg/mL	128 µg/mL	128 µg/mL	32 µg/mL	–	–	–	–	–	–	–	–	–	–
CCCCCCCCCCCC[N+]1(C)CCCCC1CCN1c2ccccc2Sc2ccc(SC)cc21.[Br-] (stereo not shown) [Compound S29, 1-dodecyl-1-methyl-2-(2-(2-(methylthio)-10H-phenothiazin-10-yl)ethyl)piperidin-1-ium bromide]	64 µg/mL	2 µg/mL	2 µg/mL	2 µg/mL	64 µg/mL	2 µg/mL	4 µg/mL	4 µg/mL	2 µg/mL	2 µg/mL	–	–	–	–	–	–	–	–	–	–
C=CC[N+](C)(C)C(C)CN1c2ccccc2Sc2ccccc21.[Br-] (stereo not shown) [Compound S41, N-(1-(10H-phenothiazin-10-yl)propan-2-yl)-N,N-dimethylprop-2-en-1-aminium bromide]	256 µg/mL	256 µg/mL	256 µg/mL	32 µg/mL	256 µg/mL	64 µg/mL	64 µg/mL	256 µg/mL	128 µg/mL	64 µg/mL	–	–	–	–	–	–	–	–	–	–
